Test results from PubChem BioAssay AID179 (DTP/NCI, 2004).
“And” between values parts separate entries of the source, which are not always exact repeats. Equal values may be shown once. The source made the active and inactive calls.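 Rule for the calls: active = compounds giving half or more protection of infected cells from virus-caused growth loss, again on retest; inactive = the rest.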 Where a SMILES comes first, the peptide text is derived from it. The star is where a group is joined. Boc = CC(C)(C)OC(=O)*; OBn = c1ccc(CO*)cc1; Bn = c1ccc(C*)cc1

Tested on: CEM cells HIV-1 protection, formazan growth assay
Experiment: NCI AIDS Antiviral Assay
Details: for IC50: measured here: growth of uninfected CEM cells
How it was run: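 Human CEM cells, uninfected and HIV-1-infected, exposed to five drug concentrations; growth measured by soluble formazan assay and scored as percent protection from infection, with protecting compounds retested.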

Structure (SMILES)	EC50	IC50	outcome
COc1ccc(N=NC(=O)NC(CC(C)C)C(=O)NC(Cc2ccccc2)C(=O)O)cc1 (stereo not given)	> 200 µM	3.09 µM	–
O=C1C=CC(=O)N1Nc1ccc([N+](=O)[O-])cc1[N+](=O)[O-]	> 200 µM	110 µM	–
CC(=O)/C=C(/C)[O-].CCN(CC)CCNCCN.O=N[O-].[Co+3].[O-][Cl+3]([O-])([O-])[O-]	> 200 µM	> 200 µM	–
COc1cccc(-c2nc(N)c(C#N)c3c2CCS(=O)(=O)c2ccc(C)cc2-3)c1	> 200 µM	4.07 µM	–
O=C(CC(C(=O)c1ccco1)c1ccsc1)c1ccco1 (stereo not given)	> 200 µM	107 µM	–
O=C(c1ccco1)N(C(=S)N1CCN(c2ccccn2)CC1)c1ccccc1	> 47.9 µM	46.8 µM	–
O=C(/C=C/c1cc2ccccc2o1)N1CCN(c2ccccn2)CC1	> 200 µM	191 µM	–
CC(C)(C)N1C(=O)[N+]2(CCCCC2)N=C1[O-]	> 4.47 µM	> 4.47 µM	–
CSc1c2c(C)n[nH]c2nn1-c1ccccc1	> 200 µM	12.3 µM	–
O=[P+](O)c1cc2ccccc2c2ccccc12	–	–	inactive
Cc1ccc(-n2c(CSc3ccc(Cl)cc3)nnc2SCc2nc3ccccc3[nH]2)cc1	> 200 µM	120 µM	–
CCCC1(CCCNC(=O)c2ccccc2)OCc2ccccc2CO1	> 513 µM	> 513 µM	–
O=C1SC(c2ccccc2)(c2ccccc2)c2ccccc21	> 4.79 µM	> 4.79 µM	–
NCCN1CC2CCC(CC2)C1	> 200 µM	182 µM	–
COC1N(C2CC(F)C(CO)O2)C(=O)NC(=O)C1(C)Br (stereo not given)	0.00525 µM and 0.00316 µM	5.62 µM and 6.03 µM	–
Cc1cc(C)nc(/C(=N\NC(N)=O)C(=O)Nc2nc3ccc(C)cc3s2)c1	> 661 µM	> 661 µM	–
CC1(C)OC(=O)c2cc(C(=CC=O)c3cc(Cl)c4c(c3)C(=O)OC(C)(C)O4)cc(Cl)c2O1	> 200 µM	36.3 µM	–
CC1CN1P(=O)(OCCC#N)N1CC1C (stereo not given)	> 200 µM	> 200 µM	–
CC1(C)OC(=O)C(=Cc2ccc(O)cc2)C(=O)O1	> 1000 µM	550 µM	–
Cn1c2ccccc2n2c(=O)c(-c3ccc(O)cc3)nnc12	> 200 µM	> 200 µM	–
CC1(O)CCC2(C#N)CCC1C2O (stereo not given)	> 1380 µM	> 1380 µM	–

Structure (SMILES)	EC50	IC50	outcome
CSc1nc2c(nc(N)n2C2OC(CO)C(O)C(O)C2O)c(=O)n1C (stereo not given)	–	–	inactive
CN1c2ccccc2N(C(=O)c2ccc(Cl)cc2)C(CC(=O)O)c2cccn21 (stereo not given)	> 631 µM	117 µM	–
O=C1CSC(/C(=C/c2ccccc2)c2nc3ccccc3[nH]2)=N1	21.9 µM	22.4 µM	–
CCOC(=O)Oc1c(Cl)cc(C(=CCC[C@H]2CC[C@@]3(C)[C@@H](CC[C@@H]4[C@@H]3CC[C@]3(C)[C@@H](C(C)CCCC(C)C)CC[C@@H]43)C2)c2cc(Cl)c(OC(=O)OCC)c(C(=O)OCC)c2)cc1C(=O)OCC (stereo not given in full)	–	–	inactive
OCCNC(=S)SSC(=S)NCCO	–	–	inactive
CC(C)(N)C(=O)N[C@@H]1C(=O)N2[C@@H]1SC(C)(C)[C@@H]2C(=O)O	> 200 µM	> 200 µM	–
CC(CN1NC12CCCC2)N1NC12CCCC2 (stereo not given)	> 200 µM	> 200 µM	–
O=C(Cc1nc2ccccc2s1)C(=O)Nc1ccc(Cl)cc1	–	–	inactive
O=[N+]([O-])c1ccc(-n2nnc3ccccc32)nc1	> 200 µM	> 200 µM	–
CCCC1(CC(=O)O)OCCc2c1[nH]c1ccccc21 (stereo not given)	> 912 µM	457 µM	–
CC(=O)OC1(c2ccccc2)OC(=O)C(C)(C)c2ccccc21 (stereo not given)	> 158 µM	> 158 µM	–
O=C1C(=O)c2ccccc2C(O)=C1CCCc1ccc(Oc2ccccc2)cc1	–	–	inactive
COc1c2occc2c(N)c2ccc(=O)oc12	> 95.5 µM	> 95.5 µM	–
O=C1CCCCCCCCCCCC(=O)OCCO1	> 132 µM	> 132 µM	–
Cc1cc2c(=O)cc(-c3ccccc3Cl)oc2c(C(=O)O)c1C	> 200 µM	> 200 µM	–
CCOC(=O)C(NC(=O)Nc1ccccc1)(Nc1cccc(Cl)c1)C(F)(F)F (stereo not given)	> 200 µM	195 µM	–
NNC(=S)N/N=C(/C(=O)Nc1cc(Cl)ccc1Cl)C1C(=O)Nc2ccccc2S1=O (stereo not given)	> 513 µM	257 µM	–
CC1(C)CNC[C@](C)(OCCOC(c2ccccc2)(c2ccccc2)c2ccccc2)C(=O)NC(C)(C)CNC[C@@](C)(OCCOC(c2ccccc2)(c2ccccc2)c2ccccc2)C(=O)N1	> 200 µM	> 200 µM	–
O=C1NCCCC12CCCNC2=O	> 20.9 µM	> 20.9 µM	–
CCCCNC(=S)Nc1nc(C(=O)NNC(=S)Nc2ccccc2)cs1	58.9 µM	> 200 µM	–
Nc1nc(N)c2cc(-c3ccccc3)cnc2n1	> 200 µM	15.8 µM	–

Structure (SMILES)	EC50	IC50	outcome
CC(C)CN1CN(c2ccccc2)C2(CCN(CC(C)(c3ccc(F)cc3)C3OCCO3)CC2)C1=O (stereo not given)	> 100 µM	12.6 µM	–
Nc1nc(-c2ccccc2)nc2oc(-c3cccs3)nc12	> 200 µM	> 200 µM	–
COc1cc(N=Nc2cc(S(=O)(=O)O)c3cccnc3c2O)ccc1-c1ccc(N=Nc2cc(S(=O)(=O)O)c3cccnc3c2O)cc1OC	100 µM	182 µM	–
CC[S+](C)c1ccc(-c2c3nc(c(-c4ccc([S+](C)CC)cc4)c4ccc([nH]4)c(-c4ccc([S+](C)CC)cc4)c4nc(c(-c5ccc([S+](C)CC)cc5)c5ccc2[nH]5)C=C4)C=C3)cc1 (stereo not given)	4.79 µM	13.2 µM	–
CN(C)c1ccc(/C=c2\sc3nnc(-c4ccco4)n3c2=O)cc1	> 11.2 µM	> 11.2 µM	–
COc1cccc(NC(=O)CC(=O)N2N=C(C)C(N=Nc3ccc(C(=O)O)cc3)C2=O)c1 (stereo not given)	> 200 µM	63.1 µM	–
O=C1c2ccccc2C2CCC1c1ccccc12 (stereo not given)	> 32.4 µM	26.3 µM	–
C=CCOc1ccc(C2c3c([nH][nH]c3=O)CC(C)(O)C2C(=O)OC)cc1OC (stereo not given)	> 200 µM	> 200 µM	–
Cc1nc2c(c(=O)[nH]1)C1CCCCCCCN1C(=S)N2C (stereo not given)	> 200 µM	132 µM	–
Cc1ccc(S(=O)(=O)OCC2OC(CCCO)C/C([Si](C)(C)C)=C\CC2Cl)cc1 (stereo not given)	> 8.13 µM	> 8.13 µM	–
Nc1[nH]n(-c2ccccc2)c(=O)c1/C=N/C(=S)NC1CCCCC1	> 100 µM	> 100 µM	–
COc1cc(/C=C2\C(=O)N(c3cccc(NC(C)=O)c3)C(c3ccccc3)S2(=O)=O)cc(OC)c1OC (stereo not given)	> 200 µM	87.1 µM	–
[O-][n+]1cc(SCc2ccccc2)ncc1SCc1ccccc1	> 200 µM	> 200 µM	–
O=C1c2sc(-c3ccc(Cl)cc3)cc2-n2cccc21	> 151 µM	> 151 µM	–
c1ccc2c(c1)Sc1ccccc1S2	> 200 µM	> 200 µM	–
O=C(CCc1nnc2s/c(=C\c3ccccc3[N+](=O)[O-])c(=O)n12)Nc1cc(Cl)c(Cl)cc1Cl	> 2 µM	> 2 µM	–
COc1cc(/C=C/C(=O)CC(=O)/C=C/c2ccc(O)c(OC)c2)ccc1O	> 200 µM	19.1 µM and 75.9 µM	–
c1cnn(P2(n3cccn3)=NP(n3cccn3)(n3cccn3)=NP(n3cccn3)(n3cccn3)=NP(n3cccn3)(n3cccn3)=NP(n3cccn3)(n3cccn3)=NP(n3cccn3)(n3cccn3)=N2)c1	> 200 µM	> 200 µM	–
CCc1ccc(/C(C#N)=C/c2ccccc2Cl)cc1	> 200 µM	27.5 µM	–
CCCCCCCCCCCCNC(=O)c1ccc([Se][Se]c2ccc(C(=O)NCCCCCCCCCCCC)cc2)cc1	> 7.08 µM	> 7.08 µM	–
COc1ccc(C2(CC(C)C)CCN(S(=O)(=O)c3ccc(C)cc3)C2)cc1OC (stereo not given)	> 178 µM	20 µM	–

Structure (SMILES)	EC50	IC50	outcome
CNC(=O)C(CC(C)C)NC(=O)C(C)NC(=O)C(Cc1ccc(OCc2ccccc2)cc1)NC(=O)C(COCc1ccccc1)NC(=O)OC(C)(C)C (stereo not given) (Boc-S(Bn)Y(Bn)AL-NHMe; configuration not given here)	> 200 µM	9.55 µM and 13.5 µM	–
OC(c1ccccn1)C1CNc2ccccc21 (stereo not given)	–	–	inactive
O=C(NCCNCCNC(=O)C(F)(F)F)C(F)(F)F	> 200 µM	> 200 µM	–
CC(C)CC(NC(=O)OC(C)(C)C)C(=O)NC(CC(=O)OCc1ccccc1)C(N)=O (stereo not drawn) (Boc-Leu-Asp(OBn)-NH2; configuration not given here)	> 200 µM	> 200 µM	–
COC1/C=C/OC2(C)Oc3c(C)c(O)c4c(O)c(c(C=NN5C(C)CC(Cc6ccccc6)CC5C)c(O)c4c3C2=O)NC(=O)/C(C)=C/C=C/C(C)C(O)C(C)C(O)C(C)C(OC(C)=O)C1C (stereo not given)	> 200 µM	8.71 µM	–
CC1=C(C(=O)Nc2ccccc2C)C(c2ccc(Cl)c(Cl)c2)C(C(=O)Nc2ccccc2C)=C(C)N1	–	–	inactive
COC1(C)CNCC(C)(C)NC(=O)C(C)(OC)CNCC(C)(C)NC1=O (stereo not given)	> 81.3 µM	> 81.3 µM	–
CN1C(=O)C(O)CC1c1ccccc1C(F)(F)F (stereo not given)	> 200 µM	> 200 µM	–
O=c1c2cc([N+](=O)[O-])ccc2n2n1Cc1ccccc1C2	> 200 µM	> 200 µM	–
CCO/C(O)=c1/s/c(=C2/SC(=S)N(c3ccc(C)cc3)C2=O)n(-c2ccccc2)c1=N	> 1.58 µM	> 1.58 µM	–
O=c1nc2n(c3nsnc13)CCO2	> 132 µM	> 132 µM	–
COP(=O)(OC)C(C)(C)NC(=O)NC(F)(F)F	> 200 µM	> 200 µM	–
C=C1CN2CCc3c([nH]c4ccccc34)C2CC1CC(=O)N(C)C (stereo not given)	> 562 µM	468 µM	–
CCN(CC)C(=S)Nc1ccc(-c2cc3ccc(O)cc3oc2=O)cc1	> 200 µM	14.1 µM	–
COc1ccc(C(=O)Oc2c(C#N)sc3c2c(=O)n(-c2ccccc2)c(=S)n3-c2ccccc2)cc1	> 200 µM	5.13 µM	–
COC(=O)C1Cc2c(n(C)c3ccccc23)C(CCC(=O)O)N1Cc1ccccc1 (stereo not given)	–	–	inactive
CSc1cc(Br)ccc1-n1c(C(=O)c2ccccc2)c(SC)n(-c2ccccc2)c1=O	> 200 µM	14.5 µM	–
COC(=O)c1cc(C(=O)OC)c(CC(=O)C(=O)Nc2ccc(Cl)c(C(F)(F)F)c2)nc1CC(=O)C(=O)Nc1ccc(Cl)c(C(F)(F)F)c1	> 200 µM	148 µM	–
O=C1C(Cl)C(c2cccc([N+](=O)[O-])c2)N1n1cnc2ccccc2c1=O (stereo not given)	> 10 µM	> 10 µM	–
